Data published in US20260294908A1, “NEUROACTIVE ANDROGEN RECEPTOR MODULATORS AND USE THEREOF” (priority 2023, published 2026).
Like-named read-outs stand apart in the source and are kept apart here.

What was measured:
[1] = molecular target: recombinant human androgen receptor (AR) protein (Homo sapiens, UniProt P10275); format: binding
androgen receptor = molecular target: T1, androgen receptor (Homo sapiens, UniProt P10275); assay: cell-based; format: cell-based; settings: for Emax: HEK-293T, read-out: % relative efficacy
T1 construct: expressed in transfected cells; host or cells: HEK293T (ATCC, CRL-3216)
Protocol: Androgen Receptor Reporter Gene Assay (AR Reporter Gene Assay)
This experiment was performed to investigate the agonistic activity of the compounds of the present disclosure on androgen receptors.
The EC50 was calculated according to the following formula: […]
X represents the logarithm of the activator concentration; Y represents the […]; Bottom represents the lowest plateau value of the curve; Top represents the highest plateau value of the curve; and Hillslope represents the slope of the curve.
The % relative effectiveness was calculated according to the following formula: […]
Activatedcmpd: mean activation value of the compound signal across the entire plate.
ActivatedAve_PC: mean activation value of the positive control across the entire plate.
ActivatedAve_VC: mean activation value of the vehicle control across the entire plate.

[2] = for metabolites detected after administration: high-resolution mass spectrometry; for metabolites detected after administration / concentration of metabolites in serum and brain (in words): metabolite = compound of Example 3; for concentration of the compound in serum and brain (in words): after administration
Protocol: • (1) The experimental protocol was referenced and complied with the National Institutes of Health Guide for the Care and Use of Laboratory Animals, and was approved by the Laboratory Animal Welfare and Ethics Committee of the Chinese Institute for Brain Research (CIBR). • (2) Wild-type male C57BL/6J mice, aged 6-7 weeks and weighing 18-22 grams, were used. The mice were housed in a constant-temperature incubator with a 12-hour light-dark cycle and free access to food and water. Food was withheld one day before the experiment, while free access to water was permitted. The mice were injected intraperitoneally with the test compound at a dose of 20 mg/kg. […] After sampling, the samples were immediately centrifuged at low speed to remove blood cells, and hemolysis was minimized as much as possible. After collection, the serum was sent to the mass spectrometry center for pretreatment. • (4) The brain tissue was rapidly dissected after treatment and frozen in liquid nitrogen for later use.
The sample (100 μL) was warmed to the room temperature, acetonitrile: methanol (500 μL, v/v=50:50) was added to the solution, and the sample was vortexed for 20 s. The sample was centrifuged at 5,000 g for 15 min at 4° C. Subsequently, 90% of the supernatant was transferred to a glass tube and concentrated at 45° C. for 1.5 h using a vacuum concentrator. The dried sample was reconstituted in 400 μL of acetonitrile and water mixture (v/v=50/50) and vortexed for 20 s. The resulting mixture was transferred to an EP tube and centrifuged at 5,000 g for 15 min at 4° C. The supernatant was filtered through a 0.22 μm filter and analyzed by LC-MS/MS.
The brain sample (100 mg) was thawed, transferred to a homogenizer tube containing three zirconia beads, and homogenized. After processing as described for the serum samples, the supernatant was then filtered through a 0.22 μm filter, and analyzed by LC-MS/MS.

[3] = mouse, 20 mg/kg intraperitoneal

recombinant human androgen receptor (AR) protein, sequence (P10275 673-918): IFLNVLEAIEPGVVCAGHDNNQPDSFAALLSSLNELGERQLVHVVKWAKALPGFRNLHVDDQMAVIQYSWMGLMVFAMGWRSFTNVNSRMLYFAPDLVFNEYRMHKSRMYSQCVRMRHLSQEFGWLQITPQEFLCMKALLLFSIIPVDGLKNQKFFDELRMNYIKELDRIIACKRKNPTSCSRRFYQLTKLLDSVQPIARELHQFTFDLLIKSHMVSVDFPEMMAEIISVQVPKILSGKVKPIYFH
T1 sequence (P10275 whole entry): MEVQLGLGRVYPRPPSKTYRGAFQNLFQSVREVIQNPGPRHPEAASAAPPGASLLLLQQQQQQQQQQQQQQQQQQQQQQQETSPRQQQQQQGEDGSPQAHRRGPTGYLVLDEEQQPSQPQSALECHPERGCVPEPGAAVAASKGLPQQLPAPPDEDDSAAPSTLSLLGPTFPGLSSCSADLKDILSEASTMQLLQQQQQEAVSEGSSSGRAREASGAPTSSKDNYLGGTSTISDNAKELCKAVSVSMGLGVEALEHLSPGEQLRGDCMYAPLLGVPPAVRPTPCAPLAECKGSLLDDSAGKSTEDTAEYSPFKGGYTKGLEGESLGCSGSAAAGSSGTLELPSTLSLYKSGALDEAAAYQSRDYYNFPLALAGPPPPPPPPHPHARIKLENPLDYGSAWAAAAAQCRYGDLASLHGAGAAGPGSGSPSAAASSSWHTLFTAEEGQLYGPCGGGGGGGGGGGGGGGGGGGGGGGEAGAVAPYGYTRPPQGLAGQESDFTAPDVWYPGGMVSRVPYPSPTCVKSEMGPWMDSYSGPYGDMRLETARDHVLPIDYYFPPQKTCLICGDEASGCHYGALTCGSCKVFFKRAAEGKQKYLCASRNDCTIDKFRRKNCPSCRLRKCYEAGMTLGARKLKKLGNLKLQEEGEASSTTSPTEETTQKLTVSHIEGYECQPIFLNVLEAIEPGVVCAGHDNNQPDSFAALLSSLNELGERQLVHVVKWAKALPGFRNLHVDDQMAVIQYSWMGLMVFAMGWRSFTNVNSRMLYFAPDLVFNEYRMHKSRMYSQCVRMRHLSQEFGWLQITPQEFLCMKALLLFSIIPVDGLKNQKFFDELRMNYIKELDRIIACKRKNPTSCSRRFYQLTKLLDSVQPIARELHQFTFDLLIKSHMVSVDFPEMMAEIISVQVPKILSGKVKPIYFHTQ

| Compound | blood-brain barrier permeability (in words) [2, 3] | metabolites detected after administration [2] | concentration of metabolites in serum and brain (in words) [2] | concentration of the compound in serum and brain (in words) ([2]; parent compound) | further results |
| --- | --- | --- | --- | --- | --- |
| C[C@](O)(COc1cc(C(F)(F)F)ncn1)C(=O)Nc1cnc(C#N)c(C(F)(F)F)c1 [Ex. 1, (S)-N-(6-cyano-5-(trifluoromethyl)pyridin-3-yl)-2-hydroxy-2-methyl-3-((6-(trifluoromethyl)pyrimidin-4-yl)oxy)propionamide] | – | – | – | – | Affinity KD [1]: No binding |
| C[C@](O)(COc1cc(C(F)(F)F)ncn1)C(=O)Nc1ccc(C#N)c(C(F)(F)F)c1 [Ex. 2, (S)-N-(4-cyano-3-(trifluoromethyl)phenyl)-2-hydroxy-2-methyl-3-((6-(trifluoromethyl)pyrimidin-4-yl)oxy)propionamide] | – | – | – | – | Affinity KD ([1]; Biacore T200, CM5 chip, human AR Ile673-His918 with N-terminal His Tag): No binding |
| C[C@](O)(COc1ccc(C#N)cc1)C(=O)Nc1cnc(C#N)c(C(F)(F)F)c1 [Ex. 3, (S)-N-(6-cyano-5-(trifluoromethyl)pyridin-3-yl)-3-(4-cyanophenoxy)-2-hydroxy-2-methylpropionamide] | good blood-brain barrier permeability | – | – | – | affinity to the androgen receptor proteins (in words) [1]: strong affinity; androgen receptor protein binding affinity and agonistic activity (in words) (androgen receptor): excellent androgen receptor protein binding affinity and agonistic activity; concentration detected in serum and brain (in words) ([2]; up to 72 h, 20 mg/kg intraperitoneal, parent compound): certain concentrations of the compound were detected in serum and brain up to 72 h after administration |
| C[C@](O)(COc1ccc(C#N)nc1)C(=O)Nc1ccc(C#N)c(C(F)(F)F)c1 [Ex. 4, (S)-N-(4-cyano-3-(trifluoromethyl)phenyl)-3-((6-cyanopyridin-3-yl)oxy)-2-hydroxy-2-methylpropionamide] | – | – | – | – | affinity to the androgen receptor proteins (in words) [1]: strong affinity |
| C[C@](O)(COc1ccc(C#N)nc1)C(=O)Nc1cnc(C#N)c(C(F)(F)F)c1 [Ex. 5, (S)-N-(6-cyano-5-(trifluoromethyl)pyridin-3-yl)-3-((6-cyanopyridin-3-yl)oxy)-2-hydroxy-2-methylpropionamide] | – | – | – | – | affinity to the androgen receptor proteins (in words) [1]: strong affinity; androgen receptor protein binding affinity and agonistic activity (in words) (androgen receptor): excellent androgen receptor protein binding affinity and agonistic activity |
| C[C@](O)(COc1ccc(C#N)c(F)c1)C(=O)Nc1cnc(C#N)c(C(F)(F)F)c1 [Ex. 8, (S)-3-(4-cyano-3-fluorophenoxy)-N-(6-cyano-5-(trifluoromethyl)pyridin-3-yl)-2-hydroxy-2-methylpropionamide] | – | – | – | – | concentration detected in serum and brain (in words) ([2]; mouse, in vivo, ip, 20 mg/kg): certain concentrations of the compound were detected in serum and brain up to 72 h after administration; blood-brain barrier permeability (in words) ([2]; mouse, not told, ip, 20 mg/kg): good blood-brain barrier permeability |
| C[C@@](COc1ccc(C#N)cc1)(OC(=O)c1cccnc1)C(=O)Nc1cnc(C#N)c(C(F)(F)F)c1 [Ex. 13, (S)-1-((6-cyano-5-(trifluoromethyl)pyridin-3-yl)amino)-3-(4-cyanophenoxy)-2-methyl-1-oxopropan-2-yl nicotinate] | certain blood-brain barrier permeability | detected | higher concentrations of metabolites | lower concentrations of the compound | – |
| C[C@@](COc1ccc(C#N)cc1)(OC(=O)CCCC[C@@H]1CCSS1)C(=O)Nc1cnc(C#N)c(C(F)(F)F)c1 [Ex. 15, (S)-1-((6-cyano-5-(trifluoromethyl)pyridin-3-yl)amino)-3-(4-cyanophenoxy)-2-methyl-1-oxopropyl-2-yl 5-((R)-1,2-dithiolan-3-yl) pentanoate] | – | – | – | – | metabolism (in words) ([2]; mouse, in vivo): may undergo rapid metabolic processes in vivo |
| CC(C)C(=O)O[C@@](C)(COc1ccc(C#N)cc1)C(=O)Nc1cnc(C#N)c(C(F)(F)F)c1 [Ex. 21, (S)-1-((6-cyano-5-(trifluoromethyl)pyridin-3-yl)amino)-3-(4-cyanophenoxy)-2-methyl-1-oxopropan-2-yl isobutyrate] | certain blood-brain barrier permeability | detected | higher concentrations of metabolites | lower concentrations of the compound | – |
| C[C@@](COc1ccc(C#N)cc1)(OC(=O)C1CCCC1)C(=O)Nc1cnc(C#N)c(C(F)(F)F)c1 [Ex. 22, (S)-1-((6-cyano-5-(trifluoromethyl)pyridin-3-yl)amino)-3-(4-cyanophenoxy)-2-methyl-1-oxopropan-2-yl cyclopentanecarboxylate] | certain blood-brain barrier permeability | detected | higher concentrations of metabolites | lower concentrations of the compound | Emax (androgen receptor): 2.3% |
| CC(=O)O[C@@](C)(COc1ccc(C#N)cc1)C(=O)Nc1cnc(C#N)c(C(F)(F)F)c1 [Ex. 24, (S)-1-((6-cyano-5-(trifluoromethyl)pyridin-3-yl)amino)-3-(4-cyanophenoxy)-2-methyl-1-oxopropan-2-yl acetate] | – | detected | – | – | bioavailability in the brain (in words) ([2]; compared with Example 3): significantly improved; metabolism (in words) ([2]; in vivo, mouse): partially metabolized to the compound of Example 3; total concentration of parent drug and metabolites in the brain (in words) ([2]; mouse, in vivo): significantly higher |
| C[C@@](COc1ccc(C#N)cc1)(OC(=O)c1ccccc1)C(=O)Nc1cnc(C#N)c(C(F)(F)F)c1 [Ex. 26, (S)-1-((6-cyano-5-(trifluoromethyl)pyridin-3-yl)amino)-3-(4-cyanophenoxy)-2-methyl-1-oxopropan-2-yl benzoate] | certain blood-brain barrier permeability | detected | higher concentrations of metabolites | lower concentrations of the compound | affinity to the androgen receptor proteins (in words) [1]: strong affinity |
| CCC(=O)O[C@@](C)(COc1ccc(C#N)cc1)C(=O)Nc1cnc(C#N)c(C(F)(F)F)c1 [Ex. 28, (S)-1-((6-cyano-5-(trifluoromethyl)pyridin-3-yl)amino)-3-(4-cyanophenoxy)-2-methyl-1-oxopropan-2-yl-propionate] | certain blood-brain barrier permeability | detected | higher concentrations of metabolites | lower concentrations of the compound | – |
| C[C@@](COc1ccc(Cl)nc1)(OC(=O)c1cccnc1)C(=O)Nc1cnc(C#N)c(C(F)(F)F)c1 [Ex. 30, (S)-1-((6-cyano-5-(trifluoromethyl)pyridin-3-yl)amino)-3-((6-chloropyridin-3-yl)oxy)-2-methyl-1-oxopropan-2-yl nicotinate] | – | – | – | – | Emax (androgen receptor): 14.5% |
